Assay results from patent publication US12403192B2, “Nanoemulsion compositions for preventing, suppressing or eliminating allergic and inflammatory disease” (priority 2014, dated 2025).

Test system: virus
Assay: Virus inactivation by BCTP components
Conditions: concentrations equivalent to 11% BCTP
Text: Individual components of nanoemulsions (e.g. in an immunogenic composition of the present invention) can function both to inactivate a pathogen as well as to contribute to the non-toxicity of the emulsions. […] Adding the oil phase to the detergent and solvent markedly reduces the toxicity of these agents in tissue culture at the same concentrations. […] Furthermore, when all the components of BCTP are combined in one composition but are not in a nanoemulsion structure, the mixture is not as effective at inactivating a pathogen as when the components are in a nanoemulsion structure.

Q: For TRITON-X100, which “ability to inactivate a virus” value is on record?
A: less ability
